Data on 88 compounds can be found in ChEMBL document CHEMBL1157539, “Thousands of chemical starting points for antimalarial lead identification” (Nature, 2010).

This assay has as its system Plasmodium falciparum. Description: GSK_TCMDC: Inhibition of Plasmodium falciparum 3D7 in whole erythrocytes, using parasite LDH activity as an index of growth. In kind it is functional, organism-based. Particulars: Plasmodium falciparum, 3D7.
The compound `Cc1cc(N/N=C/c2ccccc2[N+](=O)[O-])c2ccccc2n1` had an XC50 of 776 nM.

As for `CC1CCCN(Cc2c(O)ccc3c(O)c(-c4nc5ccccc5s4)c(=N)oc23)C1` (stereo not drawn), the XC50 turned out to be 140 nM.

In the case of `COc1ccc(C2CCN(C#N)C2)cc1OC1CCCC1` (stereo not drawn), the XC50 turned out to be 228 nM.

On to `O=[N+]([O-])c1cccc(-c2nc3cc(C4=NC5CCCCC5N4)ccc3[nH]2)c1` (stereo not drawn), for which the XC50 was 195 nM.

`CC(C)c1ccc(NC(=O)N2CCc3ccc(OCCN(C(C)C)C(C)C)cc32)c(Br)c1`: the XC50 came out at 1090 nM.

Take `COc1cc(OC)cc(-c2nn(-c3ccc([N+](=O)[O-])cc3C#N)c(=S)n2Cc2ccco2)c1`: the XC50 is 577 nM.

As to `CC(=NNC(=N)N)C(=O)Nc1ccc(Cl)c(Cl)c1`, the XC50 was 166 nM.

`Cc1cccc2nc(-c3ccc(-c4ccc(NC(=O)NC5CC5c5ccccc5)cc4)cc3)[nH]c12` (stereo not drawn) registered an XC50 of 876 nM.

The compound `COc1cccc(NC(=O)c2ccc(NCCCN3CCC(C)CC3)c([N+](=O)[O-])c2)c1` registered an XC50 of 770 nM.

In turn, `CCCNc1ccc2nccc(CCN3CCC(NCc4ccc5c(n4)NC(=O)CS5)CC3)c2n1` gave an XC50 of 720 nM.

`CN(C)CCOc1cccc(NC(=O)Nc2ccc(-c3ccccc3)cc2)c1`: the XC50 worked out at 878 nM.

`O=c1c(NCCCN(Cc2ccc(F)cc2)c2ccccn2)c(NCc2cccnc2)c1=O` came in with an XC50 of 61.7 nM.

For the compound `CCCNCc1ccc(-c2ccc(CN(CCOC)C(=O)c3nn(-c4ccccc4)nc3C)cc2)nc1`, the XC50 amounted to 725 nM.

Turning to `CCCCc1cc(NCC)nc(Nc2ccc(OC)cc2)n1`, the XC50 amounted to 1180 nM.

Regarding `CCOc1ccc(/C=C/C(=O)Nc2cccc3c2CCN(C)C3)cc1`, the XC50 was 1110 nM.

`NC1=NC(Cc2ccccc2)N(c2ccc(Cl)cc2)C(N)=N1` (stereo not drawn) yielded an XC50 of 137 nM.

Regarding `CC1(C)CCC(C)(C)c2c1ccc(C1CCN(CCCCNC(=O)c3ccc(-c4ccc(C#N)cc4)cc3)CC1)c2O`, the XC50 is 226 nM.

The compound `CC(=O)COc1c(C2CCN(CCCCNC(=O)c3ccc(-c4ccc(C(F)(F)F)cc4)cc3)CC2)ccc2c1CCCC2` yielded an XC50 of 784 nM.

`CCNCc1cccc(-c2ccc3ccnc(N)c3c2)c1` displayed an XC50 of 46.9 nM.

On to `COc1ccc2ccccc2c1C=NN=c1cc(C)[nH]c2c(C)cccc12`, for which the XC50 came to 818 nM.

In turn, `CC(C)CCN(Cc1cncn1Cc1ccccc1F)C(=O)c1cncc(-c2ccccc2)c1` gave an XC50 of 791 nM.

Turning to `CN(C)c1ccc(CN2CCCCC(NC(=O)c3cc(-c4ccccc4F)cs3)C2)cc1` (stereo not drawn), the XC50 stood at 826 nM.

With `CC(C)CCNc1nc2ccccc2nc1Nc1cccc(C(F)(F)F)c1`, the XC50 was determined as 905 nM.

Turning to `CCCCCCC(C)c1cc(O)c2c(c1)OC(C)(C)C=C2c1ccncc1` (stereo not drawn), the XC50 turned out to be 733 nM.

Consider `Cn1ncc2c3c(CCN4CCC(NCc5cc6c(cn5)OCC6)CC4)c(Cl)cnc3ccc21`, for which the XC50 came to 881 nM.

As for `OCc1c(Cl)cc(Cl)cc1CNCCCNc1nc2ccccc2[nH]1`, the XC50 is 745 nM.

Regarding `CC(=O)Nc1cccc(C(=O)Nc2cccc(-c3ccc(-c4nc5cc(F)ccc5[nH]4)s3)c2)c1`, the XC50 worked out at 896 nM.

`O=C(/C=C/c1ccc(Cl)c(Cl)c1)NCCCCCCN1CCN(C(=O)Nc2ccc(C(F)(F)F)cc2)CC1` displayed an XC50 of 397 nM.

`N#CC(c1ccc(F)cc1)c1ccc2c(C(F)(F)F)cc(C(F)(F)F)nc2n1` (stereo not drawn) registered an XC50 of 726 nM.

As for `Oc1ccc2[nH]c(-c3cccc(F)c3)nc2c1CN1CCCC1`, the XC50 turned out to be 795 nM.

The compound `Cc1cccc2nc(-c3cccc(-c4cccc(NC(=O)NC5CC5c5ccccc5)c4)c3)[nH]c12` (stereo not drawn) came in with an XC50 of 705 nM.

As to `CCN(CCCN1CCCCC1)c1cc(C)nc(Nc2ccc(Br)cc2F)n1`, the XC50 was determined as 548 nM.

On to `CN(C)CCCOc1ccc(CN2CCC(c3c[nH]c4ccc(NCC5CCCCC5)cc34)CC2)cc1`, for which the XC50 worked out at 678 nM.

For the compound `CCn1cc(C=C2Oc3c(ccc(O)c3CN3CCCCC3)C2=O)c2ccccc21`, the XC50 turned out to be 281 nM.

Take `CCCOc1ccc(C=C(CC(=O)O)c2nc3ccccc3s2)cc1OCC`: the XC50 was determined as 554 nM.

Compound `COc1cc(NC(=O)c2ccc(-c3ccc(C(C)=O)cc3)s2)ccc1OCCN1CCCC1` registered an XC50 of 147 nM.

For `COc1cc2nccc(Nc3cccc(Oc4ccccc4)c3)c2cc1OC`, the XC50 turned out to be 643 nM.

Turning to `O=[N+]([O-])c1ccc(CNCCCCCCNCc2ccc([N+](=O)[O-])c3ccccc23)c2ccccc12`, the XC50 was 787 nM.

As for `COc1cccc(CNC(=O)c2cnc(N3CCN(c4ccncc4)CC3)c(Cl)c2)c1`, the XC50 came to 1150 nM.

Compound `CCOC(=O)c1ccc(OCCCCCCOc2ccc(Br)cc2)cc1` had an XC50 of 777 nM.

`Cc1ccc(NC(=O)c2cc([N+](=O)[O-])ccc2NCc2cccnc2)cc1Cl` registered an XC50 of 1120 nM.

`CCC(C)C(COC(=O)c1cc(OC)c(OC)c(OC)c1)N(C)CCN(C)C(COC(=O)c1cc(OC)c(OC)c(OC)c1)C(C)CC` (stereo not drawn) came in with an XC50 of 947 nM.

The compound `Cc1cccc2nc(-c3ccc(-c4ccc(CN5CCC(CO)CC5)cc4)s3)[nH]c12` gave an XC50 of 812 nM.

Consider `CCC(C)NS(=O)(=O)c1ccc2nc(Nc3ccc(C)cc3)n(C3CCCCC3C)c2c1` (stereo not drawn), for which the XC50 worked out at 592 nM.

`O=C(Nc1ccccc1F)N(CCCn1ccnc1)Cc1csc(-c2ccc(CNCc3ccccc3)cc2)n1` displayed an XC50 of 841 nM.

`COc1ccc2nccc([C@@H](O)CN3CCC(NCc4nc5cc(F)c(F)cc5[nH]4)CC3)c2c1` displayed an XC50 of 533 nM.

Regarding `CC(C)CCN1CCCN(Cc2ccc(C(=O)Nc3ccc(C(C)(C)C)cc3)cc2)CC1`, the XC50 turned out to be 867 nM.

With `CCCCc1nc2nc(N)nc(N)c2cc1CCC`, the XC50 is 308 nM.

Regarding `O=C(Nc1ccc(Cl)cc1)Nc1cccc(-c2cccc(-c3nc4ccccc4[nH]3)c2)c1`, the XC50 amounted to 131 nM.

`Cc1cc(CN2CC[C@H](NC(=O)c3ccc(Cl)c(Cl)c3)C2)ccc1OCCN1CCCC1` returned an XC50 of 1160 nM.

As to `NC(=O)c1ccc(C(=O)Nc2cccc(-c3ccc(-c4nc5cc(C(F)(F)F)ccc5[nH]4)cc3)c2)cc1`, the XC50 worked out at 514 nM.

`COc1cc2nc(N3CCN(c4nc(N)c5cc(OC)c(OC)cc5n4)CC3)nc(N)c2cc1OC` gave an XC50 of 146 nM.

Regarding `COc1ccc2nccc([C@@H](O)CN3CCC(NCCc4c[nH]c5ccccc45)CC3)c2c1`, the XC50 was 210 nM.

For the compound `CC(=O)Nc1ccc(CN(Cc2ccc(F)cc2)Cc2ccc3c(c2)OCO3)cc1`, the XC50 amounted to 943 nM.

In turn, `CN1CCN(c2ccnc3ccc(NC(=O)Nc4ccc5c(c4)CCCC5=O)cc23)CC1` yielded an XC50 of 132 nM.

Compound `CN(C)CCN(C)Cc1ccc(-c2ccc(NC(=O)c3ccc(Cl)cc3)cc2)cc1` yielded an XC50 of 943 nM.

As to `COc1cc2nccc(Nc3ccc4c(cnn4Cc4cccc(F)c4)c3)c2cc1OC`, the XC50 was found to be 237 nM.

`c1ccc2c3c(ccc2c1)Sc1c(ccc2ccccc12)N3` displayed an XC50 of 1070 nM.

`COc1ccc(-c2nonc2NC(=O)c2ccc(OC(C)C)cc2)cc1OC`: the XC50 was 635 nM.

For the compound `CCCN(CCC)CCCNc1ccc(C(=O)Nc2ccc(OCC)cc2)cc1[N+](=O)[O-]`, the XC50 amounted to 992 nM.

The compound `COc1ccc(OCCn2cc(C(=O)c3ccco3)c3ccccc32)cc1` displayed an XC50 of 773 nM.

`COc1cc(CCNC(=N)/C=C/c2ccc(Cl)cc2)ccc1Cl`: the XC50 turned out to be 241 nM.

The compound `O=C1Nc2cccc3c2C1(CCCCCN1CC=C(c2c[nH]c4ccccc24)CC1)CCC3` (stereo not drawn) came in with an XC50 of 740 nM.

As for `c1ccc2[nH]c(-c3ccc(-c4ccc(CN5CCN(CCN6CCOCC6)CC5)cc4)s3)nc2c1`, the XC50 came to 280 nM.

With `CCCCCCCCS(=O)(=O)NCCCC1CCN(CCCCCNC(=O)C=Cc2ccc(Cl)c(Cl)c2)CC1`, the XC50 was 858 nM.

The compound `Cc1cc(C2CCCCN2C)ccc1-c1ccc(C(=O)N2CCc3cc4c(cc32)C2(CCN(C)CC2)CO4)cc1` (stereo not drawn) registered an XC50 of 791 nM.

Turning to `O=C(/C=C/c1ccc(Cl)c(Cl)c1)NCCCCCN1CCCC(CNC(=O)c2sc3ccccc3c2Cl)C1` (stereo not drawn), the XC50 was found to be 870 nM.

On to `N=C(NCCc1ccc(Cl)c(Cl)c1)c1ccc2ccccc2c1`, for which the XC50 was 514 nM.

For `CC(Cc1ccc(OCCCCOc2ccccc2)cc1)NCCc1ccccc1Cl` (stereo not drawn), the XC50 is 175 nM.

The compound `CCCCNCCOc1ccc(-c2nc(-c3ccccc3)c(-c3ccccc3)[nH]2)cc1` had an XC50 of 679 nM.

`CC(C)(CNC(=O)C1CCN(CCOCc2ccccc2)CC1)c1nc(-c2ccc(Cl)c(O)c2)c(-c2ccncc2)[nH]1` showed an XC50 of 620 nM.

The compound `Cc1nnsc1C(=O)Nc1cccc(-c2cccc(-c3nc4cc(C(F)(F)F)ccc4[nH]3)c2)c1` displayed an XC50 of 235 nM.

Compound `CCCn1cnc2cc(C(=O)Nc3ccc(-c4cccc(CN(C)C)c4)cc3)ccc2c1=O` showed an XC50 of 928 nM.

With `COc1ccc(C2NCCc3c2[nH]c2ccccc32)cc1CN1CCN(c2ccc(F)cc2)CC1` (stereo not drawn), the XC50 came out at 776 nM.

On to `CS(=O)(=O)N1CC2(CCN(CCC(NC(=O)NCc3ccc(Cl)c(Cl)c3)c3ccc(Cl)c(Cl)c3)CC2)c2ccccc21` (stereo not drawn), for which the XC50 was 799 nM.

Consider `CN(C)CCc1c[nH]c2ccc(C(=O)Nc3ccc(-c4ccncc4)cc3)cc12`, for which the XC50 stood at 567 nM.

As to `CCc1nnc2sc(-c3cccc(NC(=O)c4ccc(OC)c(Cl)c4)c3)nn12`, the XC50 came to 1140 nM.

`CCc1ccc(CN2CCC(CNC(=O)c3cc(-c4ccccc4Cl)cs3)C2)cc1` (stereo not drawn) gave an XC50 of 1430 nM.

As to `CCOC(=O)C(=O)N1c2ccc(OCC)cc2-c2c(ssc2=S)C1(C)C`, the XC50 came to 216 nM.

With `COC(=O)c1cccc(NC(=O)NC2CCN(c3ccnc(Nc4ccc(F)cc4)n3)C2)c1` (stereo not drawn), the XC50 is 500 nM.

Turning to `CC(Cc1ccc(SC(C)C)cc1)NCC(O)c1cccc(Cl)c1` (stereo not drawn), the XC50 stood at 827 nM.

Regarding `COc1ccccc1C1CN(CCNC(=O)c2nc(C)c[nH]2)Cc2ccccc2O1` (stereo not drawn), the XC50 was determined as 797 nM.

With `Cc1cccc2nc(-c3ccc(-c4ccc(NC(=O)c5cncn5C)cc4)s3)[nH]c12`, the XC50 was found to be 670 nM.

Compound `NC1=NC2(CCCCC2)N(OCCCCCCN2C(=O)c3ccccc3C2=O)C(N)=N1` registered an XC50 of 871 nM.

As for `O=C(Nc1cccc(CN2CCCN(Cc3ccccc3)CC2)c1)c1ccc(-c2ccccc2)cc1`, the XC50 came to 1300 nM.

`CCCCCCNC(=O)C1Cc2c([nH]c3ccc(F)cc23)C2(CCN(Cc3ccccc3)CC2)N1` (stereo not drawn) yielded an XC50 of 871 nM.

The compound `Cc1cc(NC(=O)Nc2ccc(I)c(OCCN(C)C)c2)ccc1Br` yielded an XC50 of 625 nM.

`Cc1ccc(N2CCc3c(-c4cc5cccnc5nc4C)cc(C)nc32)c(Cl)c1` showed an XC50 of 577 nM.
